In US8637526B2, “Pyrazolopyrimidine JAK inhibitor compounds and methods” (Genentech, Inc., priority 2008, dated 2014):
Read-outs that look alike come from different tables or passages of the source.

Legend:
TF-1 cells [1] = assay: EPO-stimulated STAT5 phosphorylation in TF-1 cells (JAK2-dependent signaling, MSD); assay type: cell-based; settings: Homo sapiens, read-out: EPO pSTAT5 TF1 EC50
Procedure: (§1) The activities of compounds were determined in cell-based assays that are designed to measure JAK1 or JAK2-dependent signaling. Compounds were serially diluted in DMSO and incubated with TF-1 cells (American Type Culture Collection (ATCC); Manassas, Va.) in 384-well microtiter plates in OptiMEM medium without phenol red, 1% Charcoal/Dextran stripped FBS, 0.1 mM NEAA, 1 mM sodium pyruvate (Invitrogen Corp.; Carlsbad, Calif.) at a final cell density of 100,000 cells per well and a final DMSO concentration of 0.2%. Human recombinant IL-6 (R&D systems; Minneapolis, Minn.) or EPO (Invitrogen Corp.; Carlsbad, Calif.) was then added at a final concentration of 30 ng/mL or 10 Units/mL, respectively, to the microtiter plates containing the TF-1 cells and compound and the plates were incubated for 30 min at 37° C. Compound-mediated effects on STAT3 or STATS phosphorylation were then measured in the lysates of cells incubated in the presence of IL-6 or EPO, respectively, using the Meso Scale Discovery (MSD) technology (Gaithersburg, Md.) according to the manufacturer's protocol and EC50 values were determined.

human JAK2 kinase domain = human JAK2 kinase domain (Homo sapiens (Human), UniProt O60674); assay: JAK2 Inhibition Assay Protocol (Caliper LabChip peptide phosphorylation); assay type: biochemical; settings: enzymatic activity, 25 uM ATP; read-out: JAK2i Ki
From the text: Saltzman et al., Biochem. Biophys. Res. Commun. 246:627-633 (2004). The catalytically active kinase domain of human JAK2 was purified from extracts of SF9 insect cells infected with a recombinant baculovirus expression vector encoding the human JAK2 kinase domain (amino acid residues D812-G1132 according to the numbering of GenBank sequence accession number NP_004963.1). The activity of the JAK2 kinase domain can be measured by a number of direct and indirect methods, including quantification of phosphorylation of peptide substrates derived from the human JAK3 protein Saltzman et al., Biochem. Biophys. Res. Commun. 246:627-633 (2004). The activity of the JAK2 kinase domain was measured in vitro by monitoring phosphorylation of JAK3 derived peptides using the Caliper LabChip technology (see Examples).
The activity of the isolated kinase domain of JAK2 can be measured by monitoring phosphorylation of peptide substrates derived from the human JAK3 kinase in vitro Saltzman et al., Biochem. Biophys. Res. Commun. 246:627-633 (2004). The human JAK2 kinase domain was expressed with an N-terminal His6 tag followed by a thrombin cleavage site using the baculovirus expression vector system. The kinase domain expressed is defined as amino acid residues D812-G1132 according to the numbering of GenBank sequence accession number NP_004963.1. Recombinant DNA transfer vectors were co-transfected with BakPAK6 linearized DNA (Clontech Laboratories, Inc., Mountain View, Calif.) and the resulting viral stocks were amplified using standard protocols. Protein was produced in SF9 cells grown to a cell density of 2E6/mL in ESF921 media (Expression Systems LLC, Woodland, Calif.) and infected at an M.O.I. of 1 in Wave bioreactors. The cells were harvested 72 hours post infection, and active JAK2 enzyme was purified from the lysates of infected cells by Ni-NTA (Qiagen, Valencia, Calif.) column chromatography followed by Sephacryl S-200 (GE Healthcare, Piscataway, N.J.) column chromatography.
The catalytically active kinase domain of human JAK1, JAK2, JAK3 or TYK2 was purified from extracts of SF9 insect cells infected with a recombinant baculovirus expression vector encoding the human JAK1, JAK2, JAK3 or TYK2 kinase domains (JAK1 amino acid residues N852-D1154 according to the numbering of GenBank sequence accession number P23458, JAK2 amino acid residues D812-G1132 according to the numbering of GenBank sequence accession number NP_004963.1; JAK3 amino acid residues S783-S1124 according to the numbering of GenBank sequence accession number P52333, and TYK2 amino acid residues N873-C1187 according to the numbering of GenBank sequence accession number P29597). The activity of the JAK1, JAK2, JAK3 or TYK2 kinase domains can be measured by a number of direct and indirect methods, including quantification of phosphorylation of peptide substrates derived from the human JAK3 protein (Saltzman et al., Biochem. Biophys. Res. Commun. 246:627-633 (2004)). The activity of the JAK1, JAK2, JAK3 or TYK2 kinase domains was measured in vitro by monitoring phosphorylation of JAK3 derived peptides using the Caliper LabChip technology.
The activity of the isolated JAK2 kinase domain was measured by monitoring phosphorylation of a peptide derived from JAK3 ([…] fluorescently labeled on the N-terminus with 5-carboxyfluorescein using the Caliper LabChip technology (Caliper Life Sciences, Hopkinton, Mass.). […] Reactions were incubated at 22° C. in 384-well polypropylene microtiter plates for 30 minutes and then stopped by addition of […] of an EDTA containing solution (100 mM Hepes pH 7.2, 0.015% Brij-35, 150 mM EDTA), resulting in a final EDTA concentration of 50 mM. After termination of the kinase reaction, the proportion of phosphorylated product was determined as a fraction of total peptide substrate using the Caliper LabChip 3000 according to the manufacturer's specifications. Ki values were then determined using the Morrison tight binding model.

NK92 cells = assay: IL-12-stimulated STAT4 phosphorylation in NK92 cells (TYK2-dependent signaling, MSD); assay type: cell-based; settings: read-out: IL12-pSTAT4 NK92 EC50
Procedure: The activities of compounds were determined in cell-based assays that are designed to measure TYK2-dependent signaling. Compounds were serially diluted in DMSO and incubated with NK92 cells (American Type Culture Collection (ATCC); Manassas, Va.) in 96-well microtiter plates in RPMI medium at a final cell density of 100,000 cells per well and a final DMSO concentration of 0.57%. Human recombinant IL-12 (R&D systems; Minneapolis, Minn.) was then added at a final concentration of 10 ng/mL to the microtiter plates containing the NK92 cells and compound and the plates were incubated for 1 hr at 37° C. Compound-mediated effects on STAT4 phosphorylation were then measured in the lysates of incubated cells using the Meso Scale Discovery (MSD) technology (Gaithersburg, Md.) according to the manufacturer's protocol and EC50 values were determined

TF-1 cells [2] = assay: IL-6-stimulated STAT3 phosphorylation in TF-1 cells (JAK1-dependent signaling, MSD); assay type: cell-based; settings: Homo sapiens, read-out: IL6-pSTAT3 TF1 EC50
Procedure: as §1

[3] = 0.5 h, TF-1 cells, EPO 10 Units/mL, 30 min
[4] = NK92 cells, IL-12 10 ng/mL, 1 hr
[5] = 0.5 h, TF-1 cells, IL-6 30 ng/mL, 30 min

Chain of human JAK2 kinase domain (O60674 812-1132): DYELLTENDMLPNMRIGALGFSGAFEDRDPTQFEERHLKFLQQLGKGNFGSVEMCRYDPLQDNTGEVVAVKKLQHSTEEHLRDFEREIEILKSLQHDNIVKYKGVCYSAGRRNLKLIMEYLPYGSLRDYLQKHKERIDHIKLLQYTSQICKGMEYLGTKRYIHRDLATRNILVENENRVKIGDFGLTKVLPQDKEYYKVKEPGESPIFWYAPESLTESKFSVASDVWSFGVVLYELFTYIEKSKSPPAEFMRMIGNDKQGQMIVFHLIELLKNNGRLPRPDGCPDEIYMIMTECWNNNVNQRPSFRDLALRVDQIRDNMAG

EC50 (TF-1 cells [1]; [3])	Ki (human JAK2 kinase domain)	EC50 (NK92 cells; [4])	EC50 (TF-1 cells [2]; [5])	SMILES	EC50 (TF-1 cells [1]; TF-1, 0.5 h)	EC50 (NK92 cells; NK92, 1 h)	EC50 (TF-1 cells [2]; TF-1, 0.5 h)
0.103 µM	0.0005 µM	0.336 µM	0.17 µM	Cc1cc(NC(=O)c2cnn3ccc(N)nc23)n(-c2cc(Cl)ccc2C)n1 [Example 226]			
0.735 µM	0.0032 µM	0.579 µM	1.6 µM	Cc1cc(NC(=O)c2cnn3ccc(Nc4cccc(C(F)(F)F)c4)nc23)on1 [Example 240, 5-(3-Trifluoromethyl-phenylamino)-pyrazolo-[1,5-a]pyrimidine-3-carboxylic acid (3-methyl-isoxazol-5-yl)-amide]			
0.0553 µM	0.0001 µM	0.158 µM	0.165 µM	Nc1ccn2ncc(C(=O)Nc3c[nH]nc3-c3cc(Cl)ccc3Cl)c2n1 [Example 248, 5-Amino-pyrazolo[1,5-a]-pyrimidine-3-carboxylic acid [3-(2,5-dichloro-phenyl)-1H-pyrazol-4-yl]-amide]			
0.148 µM	0.0009 µM	0.603 µM	0.514 µM	Nc1ccn2ncc(C(=O)Nc3ccnn3-c3cc(Cl)ccc3Cl)c2n1 [Example 277, 5-Amino-pyrazolo[1,5-a]-pyrimidine-3-carboxylic acid [2-(2,5-dichloro-phenyl)-2H-pyrazol-3-yl]-amide]			
0.207 µM	0.0016 µM	1.1 µM	1.4 µM	O=C(NC1CCOCC1)c1cnn2ccc(NC3Cc4ccccc4C3)nc12 [Example 297, 5-(Indan-2-ylamino)-pyrazolo[1,5-a]pyrimidine-3-carboxylic acid (tetrahydro-pyran-4-yl)-amide]			
0.368 µM	0.0042 µM	5.3 µM	0.38 µM	Cc1cc(NC(=O)c2cnn3ccc(N)nc23)n(-c2ccccc2C)n1 [Example 343, 5-Amino-pyrazolo[1,5-a]-pyrimidine-3-carboxylic acid (5-methyl-2-o-tolyl-2H-pyrazol-3-yl)-amide]			

SMILES	EC50 (TF-1 cells [1]; [3])	Ki (human JAK2 kinase domain)	EC50 (NK92 cells; [4])	EC50 (TF-1 cells [2]; [5])	EC50 (TF-1 cells [1]; TF-1, 0.5 h)	EC50 (NK92 cells; NK92, 1 h)	EC50 (TF-1 cells [2]; TF-1, 0.5 h)
Cc1nc(-c2ccccc2C)c(NC(=O)c2cnn3ccc(N)nc23)s1 [Example 231, 5-amino-pyrazolo[1,5-a]pyrimidine-3-carboxylic acid (2-methyl-4-o-tolyl-thiazol-5-yl)-amide]		0.0018 µM			0.23 µM	3.3 µM	0.371 µM
O=C(N[C@H]1CC[C@H](O)CC1)c1cnn2ccc(NC3CCc4ccccc43)nc12 (some centres unmarked) [Example 299, 5-(Indan-1-ylamino)-pyrazolo[1,5-a]pyrimidine-3-carboxylic acid (4-hydroxy-cyclohexyl)-amide]	0.228 µM	0.0008 µM	1.77 µM	1.88 µM			
